{"source": "patent US6124431A", "about": "“Peptide derivatives” (Teikoku Hormone Mfg. Co., Ltd., priority 1993, dated 2000)", "system": "mouse leukemia P388 cells", "test": "Assay of antitumor activity (increase in life span of mice implanted with P388 leukemia)", "format": "in vivo", "conditions": "CDF1 mice, P388 cells implanted i.p.; compound i.p. on day 1 and day 5; observed for 60 days; ILS relative to dolastatin 10 = 100", "method": "(1) Assay of antitumor activity\n0.1 ml (10^6 cells/mouse) portions of mouse leukemia P388 cells were implanted intraperitoneally into 7-week-old CDF1 mice. […] From the results were calculated increases in life span (ILS, %) according to the following equation. In the following equation, T means median survival days of the chemical administration group, and C means median survival days of the control group. [formula]\nAntitumor activity is shown as the relative ratio in the case where the ILS of dolastatin 10 is supposed to be 100.", "data": [{"substance": "dolastatin 10", "values": [{"measurement": "Antitumor activity (relative ratio of ILS, ILS of dolastatin 10 supposed to be 100)", "value": 100}]}]}
